Assay results: patent publication US12150777B2, “Treatment of depression” (The Board of Trustees of the Leland Stanford Junior …, priority 2018, dated 2024)
Like-named read-outs stand apart in the source and are kept apart here.

Key:
[1] = EMBARC randomized trial, sertraline versus placebo, HAMD17 outcome; assay type: in vivo, human; conditions: all patients
Source text: Assessments and treatment protocol: The primary clinical outcome was total scores on the Hamilton Rating Scale for Depression 17-item (HAMD17)^24,25, administered at each study visit (baseline, week 1, week 2, week 3, week 4, week 6, and week 8).
Key eligibility for the study included being 18-65 years old, having major depression as a primary diagnosis by the Structured Clinical Interview for DSM-IV Axis I Disorders^1, at least moderate depression severity with a score≥14 on the Quick Inventory of Depressive Symptomatology-Self Report (QIDS-SR) at screening and randomization, a major depressive episode beginning before age 30, either a chronic recurrent episode (duration≥2 years) or recurrent MDD (at least 2 lifetime episodes), and no antidepressant failure during the current episode. […] In addition, 40 healthy individuals who were medically and psychiatrically healthy, were recruited across the four sites, and assessed in a similar manner as the patients. […]

[2] = Moderation of outcome by left amygdala PPI task-related connectivity; assay type: in vivo, human
Procedure: Context-dependent connectivity analyses were conducted using the generalized PPI toolbox^1. A “seed” region was defined volumetrically using an anatomical region of interest mask of the left and right amygdala. Each amygdala mask was then deformed from Montereal Neurological Institute standard space into the participant's native anatomical space using the inverse warp parameter determined during spatial normalization of the preprocessing stage. […] The interaction of the time series of behavioral parameters of interest, i.e. the task conditions utilized in the first-level activation analysis, with the deconcolved “neuronal” time series were calculated for each task condition of interest, thus producing a fully specified statistical model modeling the interaction of each task condition with the observed BOLD time series (a psychophysiological interaction). […] The first-level beta weights for the contrasts of conditions of interest were then calculated on the individual level, and individual-level generalized PPI beta maps were then carried to a second level linear mixed model analysis conducted in R using the fmri^2 and nlme^3 packages to assess voxelwise task-dependent connectivity moderation effects (as in the activation analyses).

[3] = for endpoint symptom difference Cohen's d / remission NNT: below median iI-cI activation
Source text: fMRI task and acquisition parameters: The emotional conflict task is a well-characterized paradigm^17,18, that induces emotional conflict through pairing fearful and happy faces with overlaid congruent or incongruent emotion words (participants identify facial expression using a keypad).
fMRI preprocessing and first-level modeling: For the emotional conflict task, the contrasts of interest were incongruent versus congruent trials (conflict) and post-incongruent incongruent trials versus post-congruent incongruent trials (an established measure of conflict regulation)^11,13,17,18.
Statistical analyses: All moderation analyses were conducted under an intention-to-treat framework, incorporating all randomized patients after removing those with excessive head motion or low task accuracy. As such, we employed linear mixed models both for the voxelwise neuroimaging data, as well as follow-up analyses on extracted brain signals, while fully controlling for any potential differences due to site of acquisition. Whole-brain voxelwise correction for multiple comparisons was performed at p<0.05 based on the false discovery rate.
Emotional conflict task: This well-characterized paradigm assesses both emotional conflict and emotional conflict regulation^3,4. Each trial involved presentation of an emotional face with either a fearful or happy expression, drawn from the set of Ekman & Friesen^5, with an overlaid emotion word (“FEAR” or “HAPPY”). Participants were instructed to identify the facial emotion with a key press, while trying to ignore the emotion word. The task consisted of 148 trials, with stimuli presented for 1000 milliseconds (ms) in a fast event-related design. Interstimulus intervals were 3000-5000 ms in a pseudo-randomized order counterbalanced for facial expression, gender, word, and response button. Stimuli were either congruent (e.g. fearful face with “FEAR”) or incongruent (e.g. fearful face with “HAPPY”), and stimuli were furthermore balanced to achieve an equal fraction of current and prior trial congruency, while ensuring no direct stimulus repetitions. Prior to performance of the task during neuroimaging, all participants underwent a practice version to ensure task proficiency was reached (minimum 80% accuracy) and the task instructions were understood. The neuroimaging task lasted 13 minutes and 14 seconds.
We constrained analyses to a search space defined by a whole-brain mask constructed from: a) a 30% probabilistic voxelwise threshold derived from spatially normalized, segmented binary gray matter images from an independent sample of healthy comparison participants^9,10; and b) a conjunction map of adequate signal coverage across study scanners constructed by concatenating the binarized individual-level average map of all task experimental conditions within participants acquired at each scanner, thresholding at a minimum of 50% coverage within each scanner sample, and then conjoining these maps across all scanners. Thus, the final search space was a function of both adequate signal coverage across all study scanners as well as a probabilistic assignment to the brain's gray matter. At each voxel within this search space, the moderating effect of baseline brain activation (mean-centered) was examined using a longitudinal linear mixed model implemented in the nlme R package.^14 Modeled effects included a random and fixed intercept, fixed effects of time, time×treatment arm, 4 mean-centered, dummy-coded scanner variables corresponding to: a) Columbia University scanner 1 vs. UT Southwestern scanner; b) Columbia University scanner 2 vs. UT Southwestern scanner; c) Massachusetts General Hospital scanner vs. UT Southwestern scanner; and d) University of Michigan scanner vs. UT Southwestern scanner, treatment arm×time×brain activation, and all model variables in interaction with each of the 4 site variables.

CN[C@H]1CC[C@@H](c2ccc(Cl)c(Cl)c2)c2ccccc21 [sertraline]
endpoint symptom reduction with sertraline versus placebo, Cohen's d ([1]; HAMD17, linear mixed model, 8 weeks): 0.24 | remission number needed to treat (NNT) ([1]; sertraline versus placebo): 20.1 | symptom change with sertraline versus placebo ([2]; left amygdala PPI connectivity to dorsal anterior cingulate above median): failed to show any difference | symptom change with sertraline compared to placebo ([2]; left amygdala PPI connectivity to dorsal anterior cingulate below median): steep decline in symptoms | endpoint symptom difference Cohen's d ([3]; anterior insula): 0.53 | remission NNT ([3]; anterior insula): 6.3 | endpoint symptom difference Cohen's d ([3]; dorsal anterior cingulate): 0.79 | remission NNT ([3]; dorsal anterior cingulate): 3 | endpoint symptom difference Cohen's d ([3]; frontopolar cortex): 0.85 | remission NNT ([3]; frontopolar cortex): 2.9 | benefit of sertraline over placebo ([3]; patients in bottom half of emotion-regulation capacity): no benefit | benefit of sertraline over placebo ([3]; patients in bottom quartile of emotional conflict regulatory ability): no benefit | number needed to treat ([3]; patients in top half of emotion-regulation capacity): < 5 | number needed to treat versus placebo ([3]; patients in top quartile of emotional conflict regulatory ability): < 4
